Results reported in patent US11439709B2, “Phospholipid ether analogs as cancer-targeting drug vehicles” (Cellectar Biosciences, Inc., priority 2014, dated 2022).

Columns and labels:
[1] = test system: xenograft, orthotopic and transgenic cancer and cancer stem cell derived animal models; test: Tumor selectivity of radioiodinated CLR1404 across animal tumor models (overall count); assay type: in vivo; settings: transgenic and spontaneous rodent models
Method: All described animal studies were performed according to animal protocols approved by the Institutional Animal Care and Use Committee. Female athymic nude mice (Hsd:Athymic Nude-Foxnlnu or Crl:NU-Foxn1nu, Charles River Laboratories) about 4 to 5 weeks of age, 16 to 18 g (n=6), were used for human tumor xenograft studies. Mice were anesthetized with isoflurane and injected subcutaneously with viable tumor cells in 100 μl of Dulbecco's PBS (or, for glioma cells, […] of PBS) into the right flank. Inoculum sizes were 1×10^6 (for renal, ovarian, glioma, pancreatic, prostate, and NSCLC models), 2×10^6 (for colorectal and uterine models), or 3×10^6 (breast).
Radioiodinated ^124l-LR1404 was tested. in subcutaneous and orthotopic xenografts of 60 different spontaneous, transgenic, human, and rodent malignant cell lines and tumor types. […] Representative examples are of both human (FIG. 5A-5l) and rodent (FIG. 5J-M) tumors.

[2] = test system: human RL-251 tumor xenograft; test: Prolonged retention of 131I-CLR1404 by RL-251 tumor xenograft; assay type: in vivo, SCID mouse; settings: See FIG. 3
Source text: FIG. 3. Prolonged retention of ^131ICLR1404 by human RL-251 tumor xenograft in SCIO mouse.

[3] = test system: non-small cell lung carcinoma (NSCLC) tumors; test: Clinical evaluation of 131I-CLR1404 in NSCLC patients (gamma imaging); assay type: in vivo, human; settings: two patients with advanced NSCLC; injection of <1 mCi 131I-CLR1404
Method: To date, two patients with advanced NSCLC were imaged after an injection of <1 mCi of ^131I-CLR1404. Blood and urine samples were collected at predetermined times, and gamma imaging performed at several time points following administration.
Materials and Methods: Following intravenous injection of iodine-131 labeled CLR1404 (1 mCi/20 μg), patients with advanced NSCLC where scanned at 3, 6, 24, 48, 96 h and at 7 and 11 days on a GE Maxxus dual Head SPECT scanner. Blood and urine samples were collected for pharmacokinetic analysis as well as clinical hematologic, renal, and hepatic bioanalysis.

[4] = test system: human glioblastoma stemlike cells and serum-cultured human glioblastoma cells; settings: Weichert J. P., et al. (2014), FIG. 2; cited from earlier work
[5] = test system: cancer cell lines (renal, ovarian, pancreatic, melanoma, and prostate); test: Uptake of CLR1501 by cancer cell lines versus normal fibroblasts (confocal microscopy); assay type: cell-based; settings: 24 hours; five cancer cell lines (renal, ovarian, pancreatic, melanoma, prostate) vs normal human skin fibroblasts; 5 or 7.5 μM
Source text: Human cancer cell lines were purchased from the American Type Culture Collection (ATCC). They included the following: Caki-2 (renal; clear cell carcinoma), HCT-116 (colorectal carcinoma); MES-SA/Dx5 (uterine sarcoma) [all maintained in McCoy's 5a medium supplemented with 10% fetal bovine serum (FBS)], Ovcar-3 (ovarian adenocarcinoma) [maintained in RPMI medium supplemented with 20% FBS], U87-MG (glioma) [maintained in minimum essential medium supplemented with 10% FBS], Mia Paca-2 (pancreatic carcinoma) (maintained in Dulbecco's modified Eagle's medium supplemented with 10% FBS), PC-3 (prostate carcinoma) (maintained in F-12K medium supplemented with 10% FBS), MDA-MB-231 (triple-negative mammary gland adenocarcinoma) (maintained in Leibovitz's medium supplemented with 10% FBS), and A549 (non-small cell lung carcinoma) (maintained in F-12 medium supplemented with 10% FBS). Normal human skin fibroblasts were purchased from ATCC and grown in Fibroblast Basal Medium PCS-201-030 supplemented with serum-free kit (Fibroblast Growth. Kit-Serum-Free PCS-201-040). […]
All cells were maintained at 37° C. in appropriate medium supplemented with 10% FBS and 5% CO2. […] The emission signal of CLRI 50 I was detected using Alexa Fluor 488 filters (ex/em 480/520 nm).

PC-3 cells = test: Uptake of 125I-CLR1404 by PC-3 cells after lipid raft disruption with filipin III; assay type: cell-based; settings: PC-3 cells pretreated with 2 μg/ml filipin III 15 min, then 125I-CLR1404 for 1 h; compared to untreated control cells
Method: PC-3 cells were pretreated with either 2 μg/ml filipin III or vehicle for 15 min, then washed and incubated with 2 μCi of ^125I-CLR1404 for 1 h. The media was removed and the cells were washed with phosphate buffered saline containing 0.1% bovine serum albumin, trypsinized, then split into two samples for determination of cell number by DNA content (A280 compared to a cell line specific standard curve) and counts per minute using a Gamma Counter (Perkin Elmer).

C6 glioma = test: Rat C6 glioma model, NM404 imaging and tissue distribution; assay type: in vivo; settings: for Tumor to brain ratio: C6 glioma-bearing rats
Method: Materials and Methods: All animals were housed and handled in accordance with the University of Wisconsin Research Animal Resources Center guidelines. Rat C6 glioma cells were propagated in DMEM medium (Life Technologies, Gaithersburg, Md.) supplemented with 10% heat-inactivated FBS (Bio Whittaker, Walkersville, Md.), 100 U/ml penicillin G, […] streptomycin, and 0.01 M HEPES (Life Technologies, Gaithersburg, Md.). Intracranial tumor implantation was performed as described previously. Cohen J D, et al., Intracranial C6 glioma model in adult Wistar-Furth rats. J Neuro Oncol 1990 8(1):95-6. Briefly, 1×10^6 C6 cells were resuspended in […] 1.2% methylcellulose and injected into the frontal lobes of anesthetized female Wistar rats (Harlan, Indianapolis, Ind.). Sham-operated animals received intracranial injections of an equal volume of methylcellulose without tumor cells.
Imaging Studies: Ten days after implantation, the presence of intracranial tumors was confirmed with MM. Briefly, anesthetized rats (6) received 2 ml of Gadodiamide (Gd, Omniscan 287 mg/ml, Nycomed, Princeton, N.J.) intraperitoneally and imaged 10 min later using a 1.5 Tesla clinical MR system (GE Signa LX) and a GE phased array extremity coil. The Tl-weighted (TR=500 ms, TE=I6.5 ms) multislice sequences covering the entire brain of each rat were inspected to select tumor-bearing rats with varying tumor sizes, and sham-operated rats for NM404 injections.
NM404 [18-(4-iodophenyl)-octadecylphosphocholine] (100 mg) was radioiodinated with ^125l via isotope exchange with Na^125I in a melt of pivalic acid. Weichert, et al. Int J Appl Rad Isotopes 1986; 37:907-913. NM404 has the same chemical structure as CLR1404 except that it is radioiodinated with ^125l instead of ^124l or ^131l. Following HPLC purification NM404 was dissolved in an aqueous 2% Polysorbate 20 solution prior to tail vein injection (5: −20 μCi/200 g rat) into four tumor-bearing and three sham-operated rats. At 1 (n=1), 2 (n=1), and 4 (n=2) days after NM404 injection, animals were euthanized (CO2) and brains were excised and imaged on a modified Bioscan AR2000 radio-TLC scanner (1 mm increments at 2 min acquisition/lane and 1 mm high-resolution collimator). In addition, normal brain, blood, kidney, liver, spleen, thyroid, and tumor tissues were weighed, and radioactivity counted in a gamma counter. The tissue distribution of radioactivity was then correlated to brain histology.

C[N+](C)(C)CCOP(=O)([O-])OCCCCCCCCCCCCCCCCCCc1ccc(I)cc1 [CLR1404, 18-(4-iodophenyl)-octadecylphosphocholine]
models showing tumor selectivity / selective and prolonged tumor retention [1]: 55/60
time remaining in cancer cells [2]: up to 20 days
tumor uptake and retention in the primary lung tumor [3]: significant tumor uptake and retention

C[N+](C)(C)CCOP(=O)([O-])OCCCCCCCCCCCCCCCCCCc1ccc(C2=C3C=CC=[N+]3[B-](F)(F)n3cccc32)cc1 [CLR1501]
uptake compared to normal human astrocytes and fetal human neural stem cells [4]: enhanced uptake
preferential uptake in cancer cell lines compared to normal fibroblasts [5]: five to nine

C[N+](C)(C)CCOP(=O)([O-])OCCCCCCCCCCCCCCCCCCc1ccc(I)cc1 [NM404, 18-(4-iodophenyl)-octadecylphosphocholine]
less uptake after disruption of lipid rafts (PC-3 cells): ~40%
Tumor to brain ratio (C6 glioma; 48 h after tail vein injection): 12.2
Tumor to brain ratio (C6 glioma; 96 h after tail vein injection): 6.7
uptake and retention in gliomas (imaging) (C6 glioma; gliomas ranging from 3-5 mm in diameter): striking uptake and prolonged retention in all gliomas
Radioactivity in normal brain tissue (C6 glioma; sham operated control animals): minimal
